Here are results for five compounds from patent US12281149B2, “Modulators of G-protein coupled receptors” (priority 2021, dated 2025).

Each structure is given as a SMILES string. *1 amine or outer side, *2 acyl side, *3 side chain or, on linkers, in order; H or OH if unused. Where a SMILES comes first, the peptide text is derived from it. Side-chain parts run from the residue outwards. [ ]: non-standard residue; d: D form. The star is where a group is joined. Isobutyryl(2-(3-CN-5-F-Ph)) = CC(C)(C(=O)*)c1cc(F)cc(C#N)c1; C20 diacid = O=C(O)CCCCCCCCCCCCCCCCCCC(=O)*; β2hAla(2S) = C[C@@H](CN[*:1])C(=O)[*:2]; X49 = O=C([C@H](CN[*:1])c1ccccc1)[*:2]; γGlu = O=C(O)[C@H](CCC(=O)[*:2])N[*:1]; X18 = O=C(C1(c2cccc(F)c2)CCCC1)*; X70 = CC[C@H](CN[*:1])C(=O)[*:2]; X32 = CC(C)(CN[*:1])C(=O)[*:2]; X2 = CC(C)(C(=O)*)c1cccc(F)c1; AEEA = NCCOCCOCC(=O)O; Aib = CC(C)(N)C(=O)O; βAla = NCCC(=O)O Some results are limits rather than exact numbers.

What all share (format): cell-based
Assay [1] addresses T1, GLP-1 receptor (Homo sapiens, UniProt P43220). Put plainly: HitHunter cAMP assay, GLP-1 receptor. Conditions: for EC50: CHO cells stably expressing human GLP-1 receptor, cAMP accumulation, 30 min, read-out: EC50 GLP-1R; for Emax: CHO cells, cAMP, normalized to maximum signal from GLP-1 (high) and DMSO (low), read-out: Emax GLP-1R. Background: Cyclic AMP is a second messenger, typically raised through Gs and lowered through Gi signalling.

The target of assay [2] is T2, GIP receptor (Homo sapiens, UniProt P48546).
T2 sequence (P48546 22-466): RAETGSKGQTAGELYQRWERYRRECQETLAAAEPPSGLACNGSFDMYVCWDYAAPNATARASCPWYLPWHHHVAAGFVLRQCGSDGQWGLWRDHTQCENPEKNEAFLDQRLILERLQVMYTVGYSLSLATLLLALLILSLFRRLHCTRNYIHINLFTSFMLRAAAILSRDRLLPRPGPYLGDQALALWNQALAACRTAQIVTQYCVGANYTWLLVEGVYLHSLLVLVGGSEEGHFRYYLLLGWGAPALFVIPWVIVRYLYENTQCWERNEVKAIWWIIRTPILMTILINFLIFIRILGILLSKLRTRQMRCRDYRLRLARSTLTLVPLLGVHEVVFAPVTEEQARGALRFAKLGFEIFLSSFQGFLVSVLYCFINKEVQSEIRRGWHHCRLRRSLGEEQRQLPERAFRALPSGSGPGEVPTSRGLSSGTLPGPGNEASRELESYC
Put plainly: PathHunter β-arrestin assay, GIP receptor. More on the design: host or cells: PathHunter CHO-K1 GIPR β-Arrestin Cell Line. Conditions: β-arrestin-2 recruitment, PathHunter CHO-K1 GIPR β-Arrestin Cell Line, 90 min at 37° C.; normalized to GIP; read-out: GIPR β Arrestin EC50. On the technique in general: Activated receptors often draw arrestin, which recruitment assays turn into a signal.

Assay [3] deals with T1, GLP-1 receptor. Put plainly: PathHunter β-arrestin assay, GLP-1 receptor. Details: host or cells: PathHunter CHO-K1 GLP1R β-Arrestin Cell Line. The settings on record: β-arrestin-2 recruitment, PathHunter CHO-K1 GLP1R β-Arrestin Cell Line, 90 min at 37° C.; normalized to GLP-1; read-out: GLP-1R β Arrestin EC50.
Assay [4] addresses T2, GIP receptor. Put plainly: HitHunter cAMP assay, GIP receptor. The settings on record: for EC50: CHO cells stably expressing GIP receptor, cAMP accumulation, 30 min, read-out: EC50 GIP-1R; for Emax: CHO cells, cAMP, normalized to maximum signal from GIP (high) and DMSO (low), read-out: Emax GIP-1R.

T1 sequence (P43220 24-463): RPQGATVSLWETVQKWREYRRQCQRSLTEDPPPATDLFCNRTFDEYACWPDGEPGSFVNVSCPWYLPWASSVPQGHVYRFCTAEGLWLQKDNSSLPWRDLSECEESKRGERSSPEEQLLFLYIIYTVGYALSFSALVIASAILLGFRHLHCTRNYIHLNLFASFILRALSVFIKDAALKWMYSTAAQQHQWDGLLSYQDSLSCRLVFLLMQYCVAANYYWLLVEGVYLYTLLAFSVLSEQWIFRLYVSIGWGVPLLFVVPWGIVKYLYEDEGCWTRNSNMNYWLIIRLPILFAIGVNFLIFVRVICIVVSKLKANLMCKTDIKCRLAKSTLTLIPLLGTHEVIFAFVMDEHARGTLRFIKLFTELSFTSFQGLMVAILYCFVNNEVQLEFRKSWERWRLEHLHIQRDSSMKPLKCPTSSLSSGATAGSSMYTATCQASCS

As usually defined, the EC50 is the midpoint of the concentration-response curve. A word on the Emax: it is the maximal effect, on the per cent scale that the assay sets. Consider `CC[C@H](C)[C@H](NC(=O)[C@H](CC(C)C)NC(=O)[C@H](Cc1c[nH]c2ccccc12)NC(=O)[C@H](CCC(N)=O)NC(=O)[C@@H](NC(=O)[C@H](Cc1ccccc1)NC(=O)[C@H](C)NC(=O)[C@H](CCCCNC(=O)COCCOCCNC(=O)COCCOCCNC(=O)CC[C@H](NC(=O)CCCCCCCCCCCCCCCCCCC(=O)O)C(=O)O)NC(=O)[C@H](CCC(N)=O)NC(=O)[C@H](C)NC(=O)[C@@H](NC(=O)[C@H](CCCCN)NC(=O)[C@H](CC(=O)O)NC(=O)[C@H](CC(C)C)NC(=O)C(C)(C)NC(=O)[C@@H](NC(=O)[C@H](CO)NC(=O)[C@H](Cc1ccc(O)cc1)NC(=O)[C@H](CC(=O)O)NC(=O)[C@H](CO)NC(=O)[C@@H](NC(=O)[C@H](Cc1ccccc1)NC(=O)[C@@H](NC(=O)CNC(=O)[C@H](CCC(=O)O)NC(=O)C(C)(C)CNC(=O)C(C)(C)c1cc(F)cc(C#N)c1)[C@@H](C)O)[C@@H](C)O)[C@@H](C)CC)[C@@H](C)CC)C(C)C)C(=O)N[C@@H](C)C(=O)NCC(=O)NCC(=O)N1CCC[C@H]1C(=O)N[C@@H](CO)C(=O)N[C@@H](CO)C(=O)NCC(=O)N[C@@H](C)C(=O)N1CCC[C@H]1C(=O)N1CCC[C@H]1C(=O)N1CCC[C@H]1C(=O)N[C@@H](CO)C(N)=O` [Compound 192] ({Isobutyryl(2-(3-CN-5-F-Ph))}-[X32]EGTFTSDYSI[Aib]LDKIAQK([AEEA-AEEA-γGlu-C20 diacid])AFVQWLIAGGPSSGAPPPS-NH2), for which the EC50 in assay [1] was 0.1 to 1 nM; in assay [2] it was greater than 1000 nM; in assay [3], greater than 1000 nM; in assay [4], 1 to 10 nM. The maximal effect (Emax) in assay [1] came to 101%; in assay [4] it was 104%.
Consider `CC[C@H](CNC(=O)C(C)(C)c1cc(F)cc(C#N)c1)C(=O)N[C@@H](CCC(=O)O)C(=O)NCC(=O)N[C@H](C(=O)N[C@@H](Cc1ccccc1)C(=O)N[C@H](C(=O)N[C@@H](CO)C(=O)N[C@@H](CC(=O)O)C(=O)N[C@@H](Cc1ccc(O)cc1)C(=O)N[C@@H](CO)C(=O)N[C@H](C(=O)NC(C)(C)C(=O)N[C@@H](CC(C)C)C(=O)N[C@@H](CC(=O)O)C(=O)N[C@@H](CCCCN)C(=O)N[C@H](C(=O)N[C@@H](C)C(=O)N[C@@H](CCC(N)=O)C(=O)N[C@@H](CCCCNC(=O)COCCOCCNC(=O)COCCOCCNC(=O)CC[C@H](NC(=O)CCCCCCCCCCCCCCCCCCC(=O)O)C(=O)O)C(=O)N[C@@H](C)C(=O)N[C@@H](Cc1ccccc1)C(=O)N[C@H](C(=O)N[C@@H](CCC(N)=O)C(=O)N[C@@H](Cc1c[nH]c2ccccc12)C(=O)N[C@@H](CC(C)C)C(=O)N[C@H](C(=O)N[C@@H](C)C(=O)NCC(=O)NCC(=O)N1CCC[C@H]1C(=O)N[C@@H](CO)C(=O)N[C@@H](CO)C(=O)NCC(=O)N[C@@H](C)C(=O)N1CCC[C@H]1C(=O)N1CCC[C@H]1C(=O)N1CCC[C@H]1C(=O)N[C@@H](CO)C(N)=O)[C@@H](C)CC)C(C)C)[C@@H](C)CC)[C@@H](C)CC)[C@@H](C)O)[C@@H](C)O` [Compound 148] ({Isobutyryl(2-(3-CN-5-F-Ph))}-[X70]EGTFTSDYSI[Aib]LDKIAQK([AEEA-AEEA-γGlu-C20 diacid])AFVQWLIAGGPSSGAPPPS-NH2), for which the EC50 in assay [1] is 1 to 10 nM; in assay [2], greater than 1000 nM; in assay [3] it was greater than 1000 nM; in assay [4] it was 10 to 100 nM. The Emax in assay [1] turned out to be 99%; in assay [4] it was 101%.
As for `CC[C@H](C)[C@H](NC(=O)[C@H](CC(C)C)NC(=O)[C@H](Cc1c[nH]c2ccccc12)NC(=O)[C@H](CCC(N)=O)NC(=O)[C@@H](NC(=O)[C@H](Cc1ccccc1)NC(=O)[C@H](C)NC(=O)[C@H](CCCCNC(=O)COCCOCCNC(=O)COCCOCCNC(=O)CC[C@H](NC(=O)CCCCCCCCCCCCCCCCCCC(=O)O)C(=O)O)NC(=O)[C@H](CCC(N)=O)NC(=O)[C@H](C)NC(=O)[C@@H](NC(=O)[C@H](CCCCN)NC(=O)[C@H](CC(=O)O)NC(=O)[C@H](CC(C)C)NC(=O)C(C)(C)NC(=O)[C@@H](NC(=O)[C@H](CO)NC(=O)[C@H](Cc1ccc(O)cc1)NC(=O)[C@H](CC(=O)O)NC(=O)[C@H](CO)NC(=O)[C@@H](NC(=O)[C@H](Cc1ccccc1)NC(=O)[C@@H](NC(=O)CNC(=O)[C@H](CCC(=O)O)NC(=O)[C@H](CNC(=O)C(C)(C)c1cc(F)cc(C#N)c1)c1ccccc1)[C@@H](C)O)[C@@H](C)O)[C@@H](C)CC)[C@@H](C)CC)C(C)C)C(=O)N[C@@H](C)C(=O)NCC(=O)NCC(=O)N1CCC[C@H]1C(=O)N[C@@H](CO)C(=O)N[C@@H](CO)C(=O)NCC(=O)N[C@@H](C)C(=O)N1CCC[C@H]1C(=O)N1CCC[C@H]1C(=O)N1CCC[C@H]1C(=O)N[C@@H](CO)C(N)=O` [Compound 170] ({Isobutyryl(2-(3-CN-5-F-Ph))}-[X49]EGTFTSDYSI[Aib]LDKIAQK([AEEA-AEEA-γGlu-C20 diacid])AFVQWLIAGGPSSGAPPPS-NH2), the EC50 in assay [1] is 100 to 1000 nM; in assay [2], greater than 1000 nM; in assay [3], greater than 1000 nM; in assay [4], 100 to 1000 nM. Besides, the Emax in assay [1] was 57%; in assay [4], 37%.
In the case of `CC[C@H](C)[C@H](NC(=O)[C@H](CC(C)C)NC(=O)[C@H](Cc1c[nH]c2ccccc12)NC(=O)[C@H](CCC(N)=O)NC(=O)[C@@H](NC(=O)[C@H](Cc1ccccc1)NC(=O)[C@H](C)NC(=O)[C@H](CCCCNC(=O)COCCOCCNC(=O)COCCOCCNC(=O)CC[C@H](NC(=O)CCCCCCCCCCCCCCCCCCC(=O)O)C(=O)O)NC(=O)[C@H](CCC(N)=O)NC(=O)[C@H](C)NC(=O)[C@@H](NC(=O)[C@H](CCCCN)NC(=O)[C@H](CC(=O)O)NC(=O)[C@H](CC(C)C)NC(=O)C(C)(C)NC(=O)[C@@H](NC(=O)[C@H](CO)NC(=O)[C@H](Cc1ccc(O)cc1)NC(=O)[C@H](CC(=O)O)NC(=O)[C@H](CO)NC(=O)[C@@H](NC(=O)[C@H](Cc1ccccc1)NC(=O)[C@@H](NC(=O)CNC(=O)[C@H](CCC(=O)O)NC(=O)[C@@H](C)CNC(=O)C1(c2cccc(F)c2)CCCC1)[C@@H](C)O)[C@@H](C)O)[C@@H](C)CC)[C@@H](C)CC)C(C)C)C(=O)N[C@@H](C)C(=O)NCC(=O)NCC(=O)N1CCC[C@H]1C(=O)N[C@@H](CO)C(=O)N[C@@H](CO)C(=O)NCC(=O)N[C@@H](C)C(=O)N1CCC[C@H]1C(=O)N1CCC[C@H]1C(=O)N1CCC[C@H]1C(=O)N[C@@H](CO)C(N)=O` [Compound 180] (X18-[β2hAla(2S)]EGTFTSDYSI[Aib]LDKIAQK([AEEA-AEEA-γGlu-C20 diacid])AFVQWLIAGGPSSGAPPPS-NH2), the EC50 is 0.1 to 1 nM in assay [1], less than 1000 nM in assay [2], greater than 1000 nM in assay [3] and 0.1 to 1 nM in assay [4]. Also, the Emax in assay [1] worked out at 101%; in assay [4], 105%.
Take `CC[C@H](C)[C@H](NC(=O)[C@H](CC(C)C)NC(=O)[C@H](Cc1c[nH]c2ccccc12)NC(=O)[C@H](CCC(N)=O)NC(=O)[C@@H](NC(=O)[C@H](Cc1ccccc1)NC(=O)[C@H](C)NC(=O)[C@H](CCCCNC(=O)COCCOCCNC(=O)COCCOCCNC(=O)CC[C@H](NC(=O)CCCCCCCCCCCCCCCCCCC(=O)O)C(=O)O)NC(=O)[C@H](CCC(N)=O)NC(=O)[C@H](C)NC(=O)[C@@H](NC(=O)[C@H](CCCCN)NC(=O)[C@H](CC(=O)O)NC(=O)[C@H](CC(C)C)NC(=O)C(C)(C)NC(=O)[C@@H](NC(=O)[C@H](CO)NC(=O)[C@H](Cc1ccc(O)cc1)NC(=O)[C@H](CC(=O)O)NC(=O)[C@H](CO)NC(=O)[C@@H](NC(=O)[C@H](Cc1ccccc1)NC(=O)[C@@H](NC(=O)CNC(=O)[C@H](CCC(=O)O)NC(=O)CCNC(=O)C(C)(C)c1cccc(F)c1)[C@@H](C)O)[C@@H](C)O)[C@@H](C)CC)[C@@H](C)CC)C(C)C)C(=O)N[C@@H](C)C(=O)NCC(=O)NCC(=O)N1CCC[C@H]1C(=O)N[C@@H](CO)C(=O)N[C@@H](CO)C(=O)NCC(=O)N[C@@H](C)C(=O)N1CCC[C@H]1C(=O)N1CCC[C@H]1C(=O)N1CCC[C@H]1C(=O)N[C@@H](CO)C(N)=O` [Compound 240] ({X2-βAla}-EGTFTSDYSI[Aib]LDKIAQK([AEEA-AEEA-γGlu-C20 diacid])AFVQWLIAGGPSSGAPPPS-NH2): the EC50 in assay [1] is less than 0.1 nM; in assay [2], less than 1000 nM; in assay [3], less than 1000 nM; in assay [4], 1 to 10 nM. Moreover, the Emax in assay [1] stood at 93%; in assay [4], 95%.
